This is an account of results in patent publication CN109223750A, “琥珀酸在防治对虾肠炎中的应用” (South China Sea Fisheries Research Institute Chinese …, priority 2018, dated 2019).

The test system of experiment [1] is HIF-1α. As to conditions: through activation of HIF-1α; cited from earlier work.
Experiment [2] concerns TNF-α. The following applies: 7 days, versus enteritis model group.
Experiment [3] relates to tilapia-derived Streptococcus agalactiae β-haemolysin/cytolysin (罗非鱼源无乳链球菌β-溶血/溶细胞素). As to conditions: cited from earlier work.
For experiment [4], the system named is IL-10. As to conditions: 7 days, versus enteritis model group.
The subject of experiment [5] is NF-κB. The following applies: 7 days, versus enteritis model group.
For experiment [6], the system named is IL-1β. As to conditions: 7 days, versus enteritis model group.
Experiment [7] relates to bacteria (细菌). The following applies: by raising bacterial proton motive force; cited from earlier work.
The conditions of experiment [8]: cited from earlier work.
The subject of experiment [9] is shrimp intestinal mucosa (对虾 肠道黏膜). As to conditions: 7 days; for intestinal mucosal damage (histopathology): HE, ×200.

Structures are written as SMILES. Where two headings read alike, the source gives them in different places.

Regarding `O=C(O)CCC(=O)O` [琥珀酸], in experiment [1], the “IL-1β secretion, inflammation” value is “诱导IL-1β分泌促进炎症”. In addition, the TNF-α expression entry in experiment [2] (high dose: 1% in feed) and in experiment [2] (low dose: 0.25% in feed) was “显著降低” in each case. Moreover, the “activity of β-haemolysin/cytolysin” value in experiment [3] is recorded as “抑制”. Further, the IL-10 expression result in experiment [4] (high dose: 1% in feed) and in experiment [4] (low dose: 0.25% in feed) was “显著降低” throughout. For the same compound, the NF-κB expression result in [5] (high dose: 1% in feed) and in experiment [5] (low dose: 0.25% in feed) was “显著降低” in each case. Moreover, the IL-1β expression entry in experiment [6] (high dose: 1% in feed) and in [6] (low dose: 0.25% in feed) was “显著降低” throughout. Moreover, in experiment [7], the “sensitivity of bacteria to antibiotics” value is given as “能够提高细菌对抗生素的敏感性”. Further, the “antibacterial and antioxidant function” value in experiment [8] (in vivo) is on record as “提高”. The feed conversion ratio entry in experiment [8] (shrimp) is “降低”. The “intestinal mucosal damage (histopathology)” value in experiment [9] (high dose: 1% succinic acid in basal feed) and in [9] (low dose: 0.25% succinic acid in basal feed) was “肠道黏膜损伤已修复,形态完整,结构清晰” each time. For the same compound, the “intestinal epithelial cell height” value in experiment [9] (high dose: 1% succinic acid in basal feed, versus blank control group and versus low-dose group) is recorded as “均有明显增加”; in [9] (low dose: 0.25% succinic acid in basal feed, versus blank control group), “有明显增加”.
